US20250206825A1, “COMPOSITION FOR PREVENTING OR TREATING MYOCARDITIS, COMPRISING VLA-4 INHIBITOR” (OSAKA UNIVERSITY, priority 2022, published 2025)

How the values were obtained:
[1] = test system: MRL-Pdcd1^−/− mice; test: AJM300 mixed diet in myocarditis model (survival, echocardiography); format: in vivo, mouse
Procedure: […] MRL-Pdcd1^−/− mice were divided into two groups: AJM300 (−) group (n=13) not to be administered with the AJM300 and AJM300 (+) group (n=12) to be administered with the AJM300.
The AJM300 group (+) was administered with a mixed diet containing 1% of AJM300 from 2 weeks of age until death.
At 28 days of age, 9 mice in the AJM300 (−) group and 10 mice in the AJM300 (+) group were evaluated for the cardiac function by the echocardiography and then euthanized to collect heart and blood samples.

[2] = test system: Vcam-1; test: Induction of Vcam-1 by TNFα in cardiac fibroblasts (Western blotting); format: cell-based, rat; details: 12 hours and 24 hours after addition of TNFα versus 0 hour, TNFα 5 to 15 ng/ml
Procedure: (§1) For the cardiac fibroblasts, fibroblasts isolated after cell dispersion of a heart harvested from a neonatal rat with Collagenase type 2 (Worthington Biochemical Corporation, LS004176) were cultured in a 96-well plate. For splenic monocytes, a spleen was harvested from a wild-type mouse and homogenized, and then the monocyte fraction was collected by specific gravity separation using Optiprep (Serumwerk Bernburg, 1893). For the adhesion experiment, the cardiac fibroblasts were cultured in the 96-well plate for 48 hours, and then medium was replaced with TNFα+/− and cultured for another 24 hours. The splenic monocytes subjected to fluorescent staining (Hoechst 33342 (DOJINDO LABORATORIES, 341-07901) or Cytored (DOJINDO LABORATORIES, 342-08531)) were added and incubated at 37° C. for 30 min. After washing 6 times with PBS (−) to remove non-adherent monocytes, and then adherent monocytes were counted on In Cell Analyzer 6000 (GE Healthcare Life Sciences).
(§2) The TNFα (Peprotech, 300-01A) was added to the wells at a final concentration of 5 to 15 ng/ml.
Induction of the Vcam-1 by the TNFα was determined by Western blotting. Anti-Vcam1 antibody EPR5047 (Abcam, ab134047) was used as a primary antibody for the Western blotting. An HRP-conjugated anti-Rabbit antibody was used for detection, and Chemi-Lumi One L (Nacalai tesque, 07880-70) was used as a luminescence reagent. […]

[3] = test system: cardiac fibroblasts and splenic monocytes; test: Adhesion experiment of monocytes with cardiac fibroblasts in vitro (TNFα stimulation); format: cell-based, neonatal rat (fibroblasts), mouse (monocytes); details: stimulation with TNFα for 24 hours; monocytes incubated 30 min at 37° C.; In Cell Analyzer 6000
Procedure: as §1, §2

[4] = 1% AJM300 mixed diet, 28 days of age, versus AJM300 (−) group, t-test p=0.0231

## COC(=O)[C@H](Cc1ccc(-n2c(=O)c3cc(N(C)C)ccc3n(C)c2=O)cc1)NC(=O)c1c(Cl)cccc1Cl [AJM300, carotegrast methyl]
[1]; [4]
  heart rate (echocardiography): significantly ameliorated bradycardia
  left ventricular contractile performance: % Fractional Shortening: significantly improved left ventricular contractile performance
[1]; mixed diet containing 1% of AJM300 from 2 weeks of age until death, Log-rank test p=0.0022
  survival time (Kaplan-Meier) versus AJM300 (−) group: significantly prolonged

## TNFα
[2]
  expression of the Vcam-1 (Western blotting): increased more
[3]
  adhesion between the cardiac fibroblasts and the monocytes: strengthened
